# Laboratory results taken from ChEMBL document CHEMBL1212939, “Structure and relative potency of several karlotoxins from Karlodinium veneficum” (J Nat Prod, 2010).
# Assay: Toxicity in human erythrocytes assessed as hemolytic activity after 24 hrs
# Format: cell-based, Erythrocyte
row,SMILES,EC50 at 24 h [µM]
1,C=C/C=C/CCCCCCCCCC/C=C/C(O)C(O)C1OC(C(O)C(O)C(=C)CCC(O)C2OC(CC(O)C(O)C(C)CCCC(O)C(O)C(O)C(C)CCC(O)C(O)C(C)CC(O)CCCC(O)CCCC(O)/C=C/CC(O)CO)C(O)C(O)C2O)CC(O)C1O (stereo not given),0.063
2,C=C/C=C/CCCCCCCCC/C=C/C(O)C(O)C1OC(C(O)C(O)C(=C)CCC(O)C2OC(CC(O)C(O)C(C)CCCC(O)C(O)C(O)C(C)CCC(O)C(O)C(C)CC(O)CCCC(O)CCCC(O)/C=C/CC(O)CO)C(O)C(O)C2O)CC(O)C1O (stereo not given),0.2
3,C=C(CCC(O)C1OC(CC(O)C(O)C(C)CCCC(O)C(O)C(O)C(C)CCC(O)C(O)C(C)CC(O)CCCC(O)CCCC(O)/C=C/CC(O)CO)C(O)C(O)C1O)C(O)C(O)C1CC(O)C(O)C(C(O)C(O)/C=C/CCCCCCCCC/C=C/C=C/Cl)O1 (stereo not given),0.11
4,C=C(CCC(O)C1OC(CC(O)C(O)C(C)CCCC(O)C(O)C(O)C(C)CCC(O)C(O)C(C)CC(O)CCCC(O)CCCC(O)/C=C/CC(O)CO)C(O)C(O)C1O)C(O)C(O)C1CC(O)C(O)C(C(O)C(O)/C=C/CCCCCCCCCC/C=C/C=C/Cl)O1 (stereo not given),0.056
5,C=C/C=C/CCCCCCCCCC/C=C/C(O)C(O)C1OC(C(O)C(O)C(=C)CCC(O)C2OC(CC(O)C(O)C(C)CCCC(O)C(O)C(O)C(C)CCC(O)C(O)C(C)CC(O)CCCC(CCCC(O)/C=C/CC(O)CO)OS(=O)(=O)O)C(O)C(O)C2O)CC(O)C1O (stereo not given),0.3
